One test concerns panel of 22 kinases. Nature of the test: In vitro inhibition of a panel of kinases. The class given is biochemical. The conditions noted are these: 20 μM; for kinases inhibited in the panel: panel of 22 kinases.
Test [1] deals with RNA library C (3×2 nucleotide asymmetric internal loops). Briefly: 2DCS selection with RNA-seq and HiT-StARTS analysis (Zobs, Fitness Score). The class given is binding. On the set-up: key to Fitness Score: Zobs normalized so most significant interaction = 100. An excerpt:
Identification of RNA-binding Small Molecules by 2DCS. […] We have previously validated the secondary structures formed by members of RNA libraries by enzymatic mapping^8, 12, 34. These discrete RNA motifs were selected because they are present in cellular RNAs. Due to the library-versus-library nature of these studies, they represent the largest screens completed to date, probing >52,000,000 interactions. Of the 1,987 compounds probed, 239 bound RNA (12.0%).
A final screen was then completed in which the 91 array-immobilized compounds were incubated with all five RNA motif libraries separately in the presence of oligonucleotide competitors F-J, d(AT)11 and d(GC)11. Oligonucleotides F-J mimic regions common to all library members, restricting binding to the randomized regions. (Note: oligonucleotide J was not used for hairpin selections.) After rigorous washing to remove unbound RNAs, bound RNAs were harvested and identified by RNA-seq. By completing selections under conditions of high oligonucleotides stringency (by use of excess competitor oligonucleotides), these studies identified small molecules that bound RNA motifs avidly. A challenge in the small molecule RNA-targeting area has been the development and identification of selective interactions between small molecules and RNAs. In myriad studies, 2DCS has defined selective RNA motif-small molecule interactions with varied affinities^11, 12, 35, 36.
Identification of Privileged RNA Space by RNA-Seq. Using RNA-seq, a large sequencing dataset was obtained for each pool of RNAs that were specifically bound to each small molecule. RNA libraries A, B, C, D, and E had at least 12.1-fold (average: 133.1±111.8), 6.7-fold (average: 80.8±78.7), 9.9-fold (average: 103.5±110.6), 7.2-fold (average: 75.7±65.6), and 6.0-fold (average: 36.3±31.6) coverage for each small molecule selection, respectively, as compared to the number of unique sequences within the corresponding RNA library. It was previously shown that at least 6-fold coverage is required to generate binding landscape maps^12. RNA-seq data were then analyzed by High Throughput Structure-Activity Relationships Through Sequencing (HiT-StARTS)^12 to identify the privileged RNA motifs that bind each small molecule. Briefly, the frequency of occurrence of a selected RNA was compared to the frequency of occurrence of the same RNA from RNA-seq analysis of the starting RNA library to account for biases arising during transcription and RT-PCR. This pooled population comparison affords the parameter Zobs, a metric of statistical confidence. A large, positive Zobs indicates a strong preference for binding the motif while a negative Zobs indicates a strong preference against binding the motif. A Fitness Score is assigned by normalizing the Zobs values to the most statistically significant small molecule-RNA interaction to 100. […] Structure-Activity Relationships (SAR). Next, the most privileged RNA motif binders and the most discriminated against RNA motifs (non-binders) for each compound selection was analyzed by generating LOGOS from the highest and lowest 0.5% of Zobs scores^37. By comparing the LOGOS for related compounds, or DiffLogos, SAR can be defined. Indeed, various hit compounds differ by a single functional group, including compounds A and B (FIG. 5). […] In contrast, the RNA motifs most hindered from binding compounds 1 and 2 (discriminated against) are quite different (FIG. 5B).
Oligonucleotides. All DNA oligonucleotides were purchased from Integrated DNA Technologies, Inc. (IDT) and used without further purification. RNA oligonucleotide competitors were purchased from Dharmacon and de-protected according to the manufacturer's standard procedure. All oligonucleotide solutions were prepared with NANOpure water. The RNA motif libraries were synthesized by in vitro transcription from the corresponding DNA template that was custom-mixed at the randomized positions to ensure equivalent representation of all four nucleotides. Compounds. […]

The subject of test [2] is HCV replication, SGR-Neo-RLuc-JFH1-2A replicon cells established in Huh-7.5. Nature of the test: HCV replication in subgenomic replicon cells (Renilla luciferase). In kind it is cell-based, Hepatitis C virus. The conditions noted are these: for IC50: Hepatitis C virus, Huh7.5, read-out: IC50, inhibition of HCV replication. An excerpt: The compounds bind their cognate loops in the 3′ UTR with mid-nanomolar to low micromolar affinities (Table 1). It was next determined if the identified compounds could inhibit HCV RNA replication in HCV subgenomic replicon cells, in particular SGR-Neo-RLuc-JFH1-2A replicon cells established in Huh-7.5 (human hepatoma cells). In this system, an autonomously replicating viral RNA replicon is used to monitor efficiently RNA replication of the virus in the absence of spread of viral RNA to adjacent cells. This is achieved by replacing the structural proteins required to assembly progeny virions with a drug selectable marker (Neo) and a Renilla luciferase (RLuc) reporter gene. Once this replicon has been delivered to human hepatoma cells and selection with G418 (conferred by Neo selectable marker) has occurred, the expression and Renilla luciferase activity is directly correlated with the level of HCV replication^57.
They were therefore assayed for their ability to inhibit HCV replication using this replicon system, with DMSO vehicle and 2′-C-methyladenosine^17 triphosphate serving as negative and positive controls, respectively.
(§1) Effect of compounds on HCV replication. […] Cytotoxicity assays. […] Oligonucleotide profiling of target engagement in vitro. […] Primers can be found in Table 4. […] Inhibition of kinases. […] . Figure S7C).

A further test concerns the target CHK1 (Homo sapiens, UniProt O14757). Nature of the test: In vitro inhibition of a panel of kinases. In kind it is biochemical. The conditions noted are these: 20 μM.
Description: as §1

Several values for one entry are separate records, joined by “and”; a condition that tells them apart may be missing. Equal entries are not always repeated.

Sequence of CHK1 (O14757 whole entry): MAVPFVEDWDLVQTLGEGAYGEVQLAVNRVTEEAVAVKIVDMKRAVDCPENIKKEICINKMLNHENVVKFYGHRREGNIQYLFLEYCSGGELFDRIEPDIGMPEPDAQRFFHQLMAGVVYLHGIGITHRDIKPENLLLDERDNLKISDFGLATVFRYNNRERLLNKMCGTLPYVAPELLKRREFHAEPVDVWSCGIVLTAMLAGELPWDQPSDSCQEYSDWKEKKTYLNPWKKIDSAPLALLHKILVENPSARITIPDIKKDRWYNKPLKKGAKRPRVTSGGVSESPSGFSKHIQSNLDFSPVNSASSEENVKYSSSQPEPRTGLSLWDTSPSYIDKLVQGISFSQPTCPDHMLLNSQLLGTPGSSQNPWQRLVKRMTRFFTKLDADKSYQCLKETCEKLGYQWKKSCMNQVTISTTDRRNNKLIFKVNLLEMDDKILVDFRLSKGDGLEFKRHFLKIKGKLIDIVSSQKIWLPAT

In the case of `O=C(Nc1cccc(NC(=O)Nc2cc(C(=O)Nc3ccc(C4=NCCN4)cc3)ccc2C(=O)Nc2ccc(C3=NCCN3)cc2)c1)Nc1cc(C(=O)Nc2ccc(C3=NCCN3)cc2)ccc1C(=O)Nc1ccc(C2=NCCN2)cc1` [Compound 7], the “kinases inhibited in the panel” value in the test with panel of 22 kinases is on record as “affected seven kinases modestly”. In addition, the “average percent inhibition of the seven affected kinases” value in the test with panel of 22 kinases amounted to 16±3%. Further, the “Fitness Score” value in test [1] (RNA motif 5′AAC3′/3′U_G5′) stood at 33; in test [1] (RNA motif 5′GAG3′/3′C_C5′), 73; in test [1] (RNA motif 5′UGU3′/3′G_A5′), 47; in test [1] (RNA motif 5′UUA3′/3′A_U5′, Zobs normalized to most significant interaction = 100), 100. Further, the Zobs in test [1] (RNA motif 5′AAC3′/3′U_G5′) is 8.2; in test [1] (RNA motif 5′GAG3′/3′C_C5′), 18.3; in test [1] (RNA motif 5′UCCAU3′/3′AUCA (non-binder)), −2.8; in test [1] (RNA motif 5′UCCUU3′/3′AUUA5′ (non-binder)), 1.1; in test [1] (RNA motif 5′UGU3′/3′G_A5′) it was 11.8; in test [1] (RNA motif 5′UUA3′/3′A_U5′) it was 25.2. In addition, the IC50 in test [2] was 17 ± 0.5 µM.
Regarding `O=C(Nc1ccc(C2=NCCN2)cc1)c1cc(C(=O)Nc2ccc(C3=NCCN3)cc2)cc(C(=O)Nc2ccc(C3=NCCN3)cc2)c1` [Compound 8], the “kinases inhibited in the panel” value in the test on panel of 22 kinases is reported as “affected seven kinases modestly”. The “average percent inhibition of the seven affected kinases” value in the test with panel of 22 kinases was 14±3%. The “inhibition of CHK1 in vitro” value against CHK1 is recorded as “inhibited”. The results for the “Fitness Score” value in test [1] (RNA motif 5′GAU3′/3′C_A5′), in test [1] (RNA motif 5′GCU3′/3′C_A5′) and in test [1] (RNA motif 5′UCUAU3′/3′ACCA5′) were 87, 79 and 45, respectively. The Zobs in test [1] (RNA motif 5′GAU3′/3′C_A5′) was 11.8; in test [1] (RNA motif 5′GCU3′/3′C_A5′), 10.8; in test [1] (RNA motif 5′UCUAU3′/3′ACCA5′) it was 6.1; in test [1] (RNA motif 5′UUA3′/3′A_U5′) it was 13.6 and 9.5. Also, the IC50 in test [2] came out at 14 ± 1 µM. The “effect on viral replication together with ASO” value in test [2] (with ASO Control binding 750 nucleotides downstream) was “less robust”; in test [2] (with ASO complementary to SL I, luciferase), “synergistic effect”.
